Laboratory results published in paper PMC7690608, “Combination Therapy of High-Dose Rabeprazole Plus Metronomic Capecitabine in Advanced Gastro-Intestinal Cancer: A Randomized Phase II Trial” (Cancers, 2020).
Where two headings read alike, the source gives them in different places.

Tests used:
[1] = design: species or system patients; details: in vivo
Experimental: This is a randomized phase II study designed to detect the advantage of adding rabeprazole to mCAP as palliative treatment for patients with metastatic GI cancer, as previously described. Eligible patients were randomly assigned 1:1 to capecitabine, 1500 mg/daily, continuously with or without rabeprazole 1.5 mg/kg bid, three days a week. The randomization was computer generated by a statistician not involved in data collection, who was called by phone at the time of assignment. The protocol was not interrupted until progression of disease, unacceptable toxicity or death occurrence. This study was designed with the primary endpoint of 3-months progression-free survival (PFS) rate. […] Safety was evaluated by considering overall incidence and severity of adverse events (AEs) as well as the seriousness and drug-relatedness of each event (CTCAE v.4.03). […] Plasma concentrations of capecitabine and its metabolites, 5′-deoxy-5′-fluorouridine (5′-DFUR) and 5- fluorouracil (5-FU), were evaluated in order to assess the potential interaction between capecitabine and rabeprazole. […] Plasma samples, calibration standard samples and quality-control (QC) samples were analyzed using a high-performance liquid chromatography (HPLC) tandem mass spectrometry (LC/MS-MS) analytical method. […]

tumor pH = system: tumor pH; design: method as in PMID 19876915; details: in vivo experiments; tumor pH shifts toward neutrality after treatment; cited from earlier work
[2] = system: metastatic gastrointestinal (GI) cancer; assay: Randomized phase II trial: efficacy (3-months PFS, PFS, clinical benefit, OS; RECIST 1.1); format: in vivo, patients
Text: In addition, patients had to be 18 years of age or older, to have adequate bone-marrow, liver, and renal function and to have an Eastern Cooperative Oncology Group (ECOG) performance status ≤2. Meanwhile, the presence of one of the following criteria excluded patients’ participation to the study protocol: GI tumors that can be treated with standard treatments, cardiovascular or CNS disease, previously untreated CNS metastases, pregnant or breast-feeding patients, organ dysfunctions that usually hinder the use of cytotoxic drugs, and/or substance abuse and any other psychological condition that may interfere with the evaluation of study results. All patients were randomized and treated at the Oncology Unit of Sant’Andrea University Hospital, Rome. Every cancer patient is commonly managed at our Institution by a multidisciplinary team, who provides for the starting and the following clinical evaluations.
This is a randomized phase II study designed to detect the advantage of adding rabeprazole to mCAP as palliative treatment for patients with metastatic GI cancer, as previously described. Eligible patients were randomly assigned 1:1 to capecitabine, 1500 mg/daily, continuously with or without rabeprazole 1.5 mg/kg bid, three days a week. The randomization was computer generated by a statistician not involved in data collection, who was called by phone at the time of assignment. The protocol was not interrupted until progression of disease, unacceptable toxicity or death occurrence. This study was designed with the primary endpoint of 3-months progression-free survival (PFS) rate. PFS was defined as the length of time from the first dose of study drug to the date of the first documented disease progression according to the Response Evaluation Criteria in Solid Tumors (RECIST), version 1.1, or death for any reason, with censoring at the date of the last contact for alive patients. Secondary endpoints included the evaluation of clinical benefit (CB), which reflects the proportion of patients with complete response (CR), partial response (PR) and stable disease (SD) and overall survival (OS). The crossover between treatment groups was not allowed before the final analysis of the primary end point. Safety was evaluated by considering overall incidence and severity of adverse events (AEs) as well as the seriousness and drug-relatedness of each event (CTCAE v.4.03). AEs with an onset during treatment, or within 28 days after the last dose of the study drug, were considered as having occurred during treatment. We grouped anemia, neutropenia, and thrombocytopenia in hematological toxicity; diarrhea, nausea, and vomiting in gastrointestinal toxicity. In the two protocol arms, plasma concentrations of capecitabine and its metabolites were determined at 2 h from the assumption of two tablet of capecitabine (1000 mg), corresponding to the tmax of the drug. Plasma concentrations of capecitabine and its metabolites, 5′-deoxy-5′-fluorouridine (5′-DFUR) and 5- fluorouracil (5-FU), were evaluated in order to assess the potential interaction between capecitabine and rabeprazole. Blood samples (7 mL) were collected in vacutainers containing ethylenediaminetetraacetic acid (EDTA) as anticoagulant, then centrifuged and the plasma samples were stored at −20 °C until analysis. […] Plasma samples, calibration standard samples and quality-control (QC) samples were analyzed using a high-performance liquid chromatography (HPLC) tandem mass spectrometry (LC/MS-MS) analytical method. […]

[3] = system: patients with metastatic GI cancer; assay: Randomized phase II trial: safety, adverse events (CTCAE v.4.03); details: in vivo
Experimental: This is a randomized phase II study designed to detect the advantage of adding rabeprazole to mCAP as palliative treatment for patients with metastatic GI cancer, as previously described. Eligible patients were randomly assigned 1:1 to capecitabine, 1500 mg/daily, continuously with or without rabeprazole 1.5 mg/kg bid, three days a week. The randomization was computer generated by a statistician not involved in data collection, who was called by phone at the time of assignment. The protocol was not interrupted until progression of disease, unacceptable toxicity or death occurrence. This study was designed with the primary endpoint of 3-months progression-free survival (PFS) rate. PFS was defined as the length of time from the first dose of study drug to the date of the first documented disease progression according to the Response Evaluation Criteria in Solid Tumors (RECIST), version 1.1, or death for any reason, with censoring at the date of the last contact for alive patients. Secondary endpoints included the evaluation of clinical benefit (CB), which reflects the proportion of patients with complete response (CR), partial response (PR) and stable disease (SD) and overall survival (OS). The crossover between treatment groups was not allowed before the final analysis of the primary end point. Safety was evaluated by considering overall incidence and severity of adverse events (AEs) as well as the seriousness and drug-relatedness of each event (CTCAE v.4.03). AEs with an onset during treatment, or within 28 days after the last dose of the study drug, were considered as having occurred during treatment. We grouped anemia, neutropenia, and thrombocytopenia in hematological toxicity; diarrhea, nausea, and vomiting in gastrointestinal toxicity. In the two protocol arms, plasma concentrations of capecitabine and its metabolites were determined at 2 h from the assumption of two tablet of capecitabine (1000 mg), corresponding to the tmax of the drug. Plasma concentrations of capecitabine and its metabolites, 5′-deoxy-5′-fluorouridine (5′-DFUR) and 5- fluorouracil (5-FU), were evaluated in order to assess the potential interaction between capecitabine and rabeprazole. Blood samples (7 mL) were collected in vacutainers containing ethylenediaminetetraacetic acid (EDTA) as anticoagulant, then centrifuged and the plasma samples were stored at −20 °C until analysis. Plasma samples were collected at the start of the study, after 4 and 8 weeks of treatment. Plasma samples, calibration standard samples and quality-control (QC) samples were analyzed using a high-performance liquid chromatography (HPLC) tandem mass spectrometry (LC/MS-MS) analytical method. Plasma concentrations were reported in µg/mL (mean values and standard deviation (SD)).
The study was designed to have 90% power to detect a hazard ratio for the 3-months PFS of 0.60 (a 40% reduction in risk) in the mCAP-rabeprazole group as compared with the mCAP group, with a one-sided type I error rate of 0.05. Given the treatment assignment ratio of 1:1, we calculated that 66 patients had to be enrolled in the study, and at least 60 events (progression disease) would have been required for the primary analysis. For PFS and OS, the stratified log-rank test was used independently at the 2-sided, 0.05 level of significance, and Kaplan–Meier estimates performed for the graphic representation of both findings. An exact logistic regression model was used to test for a difference in CB between treatments, with the model adjusted by the same factors used to stratify the primary analysis of PFS. Adverse events and laboratory abnormalities were summarized for all patients who received at least one dose of study drug. The χ^2–test and t-test for unpaired data were applied to compare frequencies and means, respectively. SPSS statistical software, Version 24 (SPSS Inc. Chicago, IL, USA) was used.

[4] = system: early stage colorectal cancer; design: method as in PMID 26803708; details: cited from earlier work

| Structure (SMILES) | plasma values in the pre-dose analysis [1] | time for tumor pH to return to acidity after treatment discontinuation (tumor pH) [h] | median OS ([2]; Kaplan–Meier) | median PFS ([2]; Kaplan–Meier) [months] | 3-year OS rate ([2]; human, in vivo) [%] | patients who reported a clinical benefit (CB: CR+PR+SD) ([2]; human, in vivo) [%] | patients who experienced a progression of the disease at the 3-months evaluation (primary end-point) ([2]; intention-to-treat, mCAP 1500 mg/daily with or without rabeprazole 1.5 mg/kg bid three days a week) [%] | Gastrointestinal G1, patients ([3]; human) [%] | Gastrointestinal G2, patients ([3]; human) [%] | Hand-foot syndrome G1, patients ([3]; human) [%] | Hand-foot syndrome G2, patients ([3]; human) [%] | Hematological toxicity G1, patients ([3]; human) [%] | Hematological toxicity G2, patients ([3]; human) [%] | Nausea ([3]; human) [n.] | Neutropenia ([3]; human) [n.] | adverse events of any grade, patients ([3]; human) [%] | severe adverse events [3] | Five-year recurrence-free survival ([4]; adjuvant capecitabine with concurrent PPIs consumption) [%] | Five-year recurrence-free survival ([4]; adjuvant capecitabine without concurrent PPIs consumption) [%] | HR for five-year recurrence-free survival ([4]; with vs. without concurrent PPIs, p = 0.03) |
| --- | --- | --- | --- | --- | --- | --- | --- | --- | --- | --- | --- | --- | --- | --- | --- | --- | --- | --- | --- | --- |
| O=c1[nH]cc(F)c(=O)[nH]1 [5-FU, 5-fluorouracil] | below zero |  |  |  |  |  |  |  |  |  |  |  |  |  |  |  |  |  |  |  |
| COc1ccc2nc([S@@+]([O-])Cc3ncc(C)c(OC)c3C)[nH]c2c1 [esomeprazole] |  | ≤ 48 |  |  |  |  |  |  |  |  |  |  |  |  |  |  |  |  |  |  |
| CCCCCOC(=O)Nc1nc(=O)n([C@@H]2O[C@H](C)[C@@H](O)[C@H]2O)cc1F [mCAP, capecitabine] | below zero |  | 6.0 (95%CI 4.0–7.9) months | 3.0 | 12 | 31 | 57 | 14 | 9 | 3 | 11 | 6 | 6 | 1 | 0 | 29 | no severe adverse event | 74 | 83 | 1.89 |
